The test relates to Ba/F3 cells expressing EGFR-Del/T790M. The test is described as follows: tumor model using Ba/F3 cells expressing EGFR-Del/T790M. The format is in vivo, mice.

Where only a bound is given, the exact number is not on record here.

Consider 1 compound from US20140024620A1, “Methods for Inhibiting Cell Proliferation in EGFR-Driven Cancers” (ARIAD PHARMACEUTICALS, INC., priority 2010, published 2014).

Excerpt: NSCLC cell lines as well as engineered Ba/F3 and NIH3T3 cell lines were used to examine the activity of compounds of formula (I) against 3 general forms of EGFR: native EGFR (the naturally occurring form), EGFR with an activating mutation (delE746_A750 [Del] or L858R; this form is sensitive to first generation EGFR inhibitors), and EGFR with both an activating mutation and a T790M resistance mutation (L858R/T790M or Del/T790M; the addition of the T790M mutation makes this form resistant to first generation EGFR inhibitors). Effects of test compounds on EGFR signaling were assessed by measuring levels of phosphorylated EGFR, effects on in vitro proliferation measured by a growth or viability assay, and effects on in vivo tumor growth measured in mice following daily oral dosing.

The term inhibition denotes the drop in the measured response relative to a control, in per cent. On to `COc1cc(N2CCC(N3CCN(C)CC3)CC2)ccc1Nc1ncc(Cl)c(Nc2ccccc2P(C)(C)=O)n1` [AP26113], for which the inhibition at 50 mg/kg (Mus musculus, BaF3, 24 h, read-out: inhibition of levels of phosphorylated EGFR in the tumor) is more than 80%. Under “daily oral dosing with 50 mg/kg”, this compound gave a tumor growth inhibition of more than 90%.
